Species on record: Rattus norvegicus
Assay: DrugMatrix - Regimen: Daily Repeat
Assay type: toxicity, organism-based, Sprague-Dawley
Parameters: regimen Daily Repeat, gender Male, age 6-8 weeks
Settings: in vivo, po, route oral GAVAGE, vehicle 100 % WATER; for ABSOLUTE BASOPHIL / ABSOLUTE EOSINOPHIL / ABSOLUTE LYMPHOCYTE / ABSOLUTE MONOCYTE / ABSOLUTE SEGMENTED NEUTROPHIL / BASOPHIL / EOSINOPHIL / ERYTHROCYTE COUNT / HEMATOCRIT / HEMOGLOBIN / LEUKOCYTE COUNT / LYMPHOCYTE / MEAN CORPUSCULAR HEMOGLOBIN / MEAN CORPUSCULAR HEMOGLOBIN CONCENTRATION / MEAN CORPUSCULAR VOLUME / MONOCYTE / NEUTROPHIL / NUCLEATED RED BLOOD CELLS / PLATELET COUNT: tissue Blood; for ALANINE AMINOTRANSFERASE / ALBUMIN / ALKALINE PHOSPHATASE / ASPARTATE AMINOTRANSFERASE / BLOOD UREA NITROGEN / CARBON DIOXIDE / CHLORIDE / CHOLESTEROL / CREATINE PHOSPHOKINASE / CREATININE / GLUCOSE / LACTATE DEHYDROGENASE / LIPASE / PHOSPHORUS / POTASSIUM / SODIUM / TOTAL BILIRUBIN / TOTAL PROTEIN / URIC ACID: tissue Plasma
[1] = 120 mg/kg, 72 h, dose level Low, time 3 day
[2] = 120 mg/kg, 120 h, dose level Low, time 5 day
[3] = 1200 mg/kg, 72 h, dose level High, time 3 day
[4] = 1200 mg/kg, 120 h, dose level High, time 5 day

Compound: O=C(O)CNCP(=O)(O)O [GLYPHOSATE]
- ABSOLUTE BASOPHIL [1]: 0 CELLS/uL
- ABSOLUTE EOSINOPHIL [1]: 153 CELLS/uL
- ABSOLUTE LYMPHOCYTE [1]: 11957 CELLS/uL
- ABSOLUTE MONOCYTE [1]: 0 CELLS/uL
- ABSOLUTE SEGMENTED NEUTROPHIL [1]: 890 CELLS/uL
- BASOPHIL [1]: 0%
- EOSINOPHIL [1]: 1.33%
- ERYTHROCYTE COUNT [1]: 5.56 x10E6/uL
- HEMATOCRIT [1]: 35.93%
- HEMOGLOBIN [1]: 13.4 G/DL
- LEUKOCYTE COUNT [1]: 13 x10E3/uL
- LYMPHOCYTE [1]: 92%
- MEAN CORPUSCULAR HEMOGLOBIN [1]: 24.1 pg
- MEAN CORPUSCULAR HEMOGLOBIN CONCENTRATION [1]: 37.3 G/DL
- MEAN CORPUSCULAR VOLUME [1]: 64.57 fL
- MONOCYTE [1]: 0%
- NEUTROPHIL [1]: 6.67%
- NUCLEATED RED BLOOD CELLS [1]: 0 /100WBC
- PLATELET COUNT [1]: 1067 x10E3/uL
- ALANINE AMINOTRANSFERASE [1]: 56 u/L
- ALBUMIN [1]: 4.13 G/DL
- ALKALINE PHOSPHATASE [1]: 286.67 u/L
- ASPARTATE AMINOTRANSFERASE [1]: 100.67 u/L
- BLOOD UREA NITROGEN [1]: 15 mg/dL
- CARBON DIOXIDE [1]: 24.67 mmol/L
- CHLORIDE [1]: 103.33 MEQ/L
- CHOLESTEROL [1]: 75 mg/dL
- CREATINE PHOSPHOKINASE [1]: 1135.33 u/L
- CREATININE [1]: 0.29 mg/dL
- GLUCOSE [1]: 198.67 mg/dL
- LACTATE DEHYDROGENASE [1]: 150.67 u/L
- LIPASE [1]: 8 u/L
- PHOSPHORUS [1]: 14.7 mg/dL
- POTASSIUM [1]: 6.43 MEQ/L
- SODIUM [1]: 145.93 MEQ/L
- TOTAL BILIRUBIN [1]: 0.27 mg/dL
- TOTAL PROTEIN [1]: 5.87 G/DL
- URIC ACID [1]: 1.73 mg/dL
- ABSOLUTE BASOPHIL [2]: 0 CELLS/uL
- ABSOLUTE EOSINOPHIL [2]: 327.33 CELLS/uL
- ABSOLUTE LYMPHOCYTE [2]: 13510 CELLS/uL
- ABSOLUTE MONOCYTE [2]: 0 CELLS/uL
- ABSOLUTE SEGMENTED NEUTROPHIL [2]: 1496 CELLS/uL
- BASOPHIL [2]: 0%
- EOSINOPHIL [2]: 2%
- ERYTHROCYTE COUNT [2]: 5.7 x10E6/uL
- HEMATOCRIT [2]: 34.73%
- HEMOGLOBIN [2]: 13.27 G/DL
- LEUKOCYTE COUNT [2]: 15.33 x10E3/uL
- LYMPHOCYTE [2]: 88.33%
- MEAN CORPUSCULAR HEMOGLOBIN [2]: 23.27 pg
- MEAN CORPUSCULAR HEMOGLOBIN CONCENTRATION [2]: 38.23 G/DL
- MEAN CORPUSCULAR VOLUME [2]: 60.93 fL
- MONOCYTE [2]: 0%
- NEUTROPHIL [2]: 9.67%
- NUCLEATED RED BLOOD CELLS [2]: 0 /100WBC
- PLATELET COUNT [2]: 1299.33 x10E3/uL
- ALANINE AMINOTRANSFERASE [2]: 51.33 u/L
- ALBUMIN [2]: 4.47 G/DL
- ALKALINE PHOSPHATASE [2]: 337.33 u/L
- ASPARTATE AMINOTRANSFERASE [2]: 87.33 u/L
- BLOOD UREA NITROGEN [2]: 15.67 mg/dL
- CARBON DIOXIDE [2]: 25 mmol/L
- CHLORIDE [2]: 103.67 MEQ/L
- CHOLESTEROL [2]: 64 mg/dL
- CREATINE PHOSPHOKINASE [2]: 252 u/L
- CREATININE [2]: 0.19 mg/dL
- GLUCOSE [2]: 168.33 mg/dL
- LACTATE DEHYDROGENASE [2]: 300.67 u/L
- LIPASE [2]: 8.67 u/L
- PHOSPHORUS [2]: 12.53 mg/dL
- POTASSIUM [2]: 6.55 MEQ/L
- SODIUM [2]: 145.77 MEQ/L
- TOTAL BILIRUBIN [2]: 0.13 mg/dL
- TOTAL PROTEIN [2]: 6.1 G/DL
- URIC ACID [2]: 1.9 mg/dL
- ABSOLUTE BASOPHIL [3]: 0 CELLS/uL
- ABSOLUTE EOSINOPHIL [3]: 430 CELLS/uL
- ABSOLUTE LYMPHOCYTE [3]: 12770 CELLS/uL
- ABSOLUTE MONOCYTE [3]: 0 CELLS/uL
- ABSOLUTE SEGMENTED NEUTROPHIL [3]: 3000 CELLS/uL
- BASOPHIL [3]: 0%
- EOSINOPHIL [3]: 2.67%
- ERYTHROCYTE COUNT [3]: 5.53 x10E6/uL
- HEMATOCRIT [3]: 35%
- HEMOGLOBIN [3]: 13.4 G/DL
- LEUKOCYTE COUNT [3]: 16.2 x10E3/uL
- LYMPHOCYTE [3]: 79.33%
- MEAN CORPUSCULAR HEMOGLOBIN [3]: 24.3 pg
- MEAN CORPUSCULAR HEMOGLOBIN CONCENTRATION [3]: 38.3 G/DL
- MEAN CORPUSCULAR VOLUME [3]: 63.37 fL
- MONOCYTE [3]: 0%
- NEUTROPHIL [3]: 18%
- NUCLEATED RED BLOOD CELLS [3]: 0 /100WBC
- PLATELET COUNT [3]: 1325.33 x10E3/uL
- ALANINE AMINOTRANSFERASE [3]: 51.33 u/L
- ALBUMIN [3]: 4.17 G/DL
- ALKALINE PHOSPHATASE [3]: 418.33 u/L
- ASPARTATE AMINOTRANSFERASE [3]: 78.33 u/L
- BLOOD UREA NITROGEN [3]: 15.33 mg/dL
- CARBON DIOXIDE [3]: 27.33 mmol/L
- CHLORIDE [3]: 101 MEQ/L
- CHOLESTEROL [3]: 60.33 mg/dL
- CREATINE PHOSPHOKINASE [3]: 226.67 u/L
- CREATININE [3]: 0.19 mg/dL
- GLUCOSE [3]: 167 mg/dL
- LACTATE DEHYDROGENASE [3]: 154.67 u/L
- LIPASE [3]: 8.67 u/L
- PHOSPHORUS [3]: 13.27 mg/dL
- POTASSIUM [3]: 6.4 MEQ/L
- SODIUM [3]: 145.67 MEQ/L
- TOTAL BILIRUBIN [3]: 0.1 mg/dL
- TOTAL PROTEIN [3]: 5.83 G/DL
- URIC ACID [3]: 1.47 mg/dL
- ABSOLUTE BASOPHIL [4]: 0 CELLS/uL
- ABSOLUTE EOSINOPHIL [4]: 318.67 CELLS/uL
- ABSOLUTE LYMPHOCYTE [4]: 13433.33 CELLS/uL
- ABSOLUTE MONOCYTE [4]: 0 CELLS/uL
- ABSOLUTE SEGMENTED NEUTROPHIL [4]: 2014.67 CELLS/uL
- BASOPHIL [4]: 0%
- EOSINOPHIL [4]: 2%
- ERYTHROCYTE COUNT [4]: 5.83 x10E6/uL
- HEMATOCRIT [4]: 36%
- HEMOGLOBIN [4]: 13.47 G/DL
- LEUKOCYTE COUNT [4]: 15.77 x10E3/uL
- LYMPHOCYTE [4]: 84.67%
- MEAN CORPUSCULAR HEMOGLOBIN [4]: 23.1 pg
- MEAN CORPUSCULAR HEMOGLOBIN CONCENTRATION [4]: 37.47 G/DL
- MEAN CORPUSCULAR VOLUME [4]: 61.7 fL
- MONOCYTE [4]: 0%
- NEUTROPHIL [4]: 13.33%
- NUCLEATED RED BLOOD CELLS [4]: 0 /100WBC
- PLATELET COUNT [4]: 1271.67 x10E3/uL
- ALANINE AMINOTRANSFERASE [4]: 65.33 u/L
- ALBUMIN [4]: 4.43 G/DL
- ALKALINE PHOSPHATASE [4]: 391.33 u/L
- ASPARTATE AMINOTRANSFERASE [4]: 82.33 u/L
- BLOOD UREA NITROGEN [4]: 16.33 mg/dL
- CARBON DIOXIDE [4]: 27.33 mmol/L
- CHLORIDE [4]: 102.67 MEQ/L
- CHOLESTEROL [4]: 68.67 mg/dL
- CREATINE PHOSPHOKINASE [4]: 204.33 u/L
- CREATININE [4]: 0.15 mg/dL
- GLUCOSE [4]: 177 mg/dL
- LACTATE DEHYDROGENASE [4]: 87 u/L
- LIPASE [4]: 9 u/L
- PHOSPHORUS [4]: 12.33 mg/dL
- POTASSIUM [4]: 6.56 MEQ/L
- SODIUM [4]: 147.4 MEQ/L
- TOTAL BILIRUBIN [4]: 0.13 mg/dL
- TOTAL PROTEIN [4]: 6.03 G/DL
- URIC ACID [4]: 1.9 mg/dL

From ChEMBL document CHEMBL3885881, “DrugMatrix”
